Test results as given in patent US10669269B2, “Substituted N-(1H-indazol-4-yl)imidazo[1,2-a]pyridine-3-carboxamide compounds as type III receptor tyrosine kinase inhibitors” (ARRAY BIOPHARMA INC., priority 2010, dated 2020).
Counter-ions that a name gives are not always drawn.

Legend:
PDGFR beta = molecular target: T1, PDGFR beta (Homo sapiens, UniProt P09619); assay: Phospho PDGFR LICOR Cell Assay (Example B); assay type: cell-based; settings: averaged IC50; PDGFR beta phosphorylation in HS27 human fibroblast cell line, PDGF-BB stimulation 10 minutes, normalized to total ERK
T1 construct: endogenous in cells; host or cells: HS27 human fibroblast cell line
Description: Compounds were screened for inhibition of PDGFR beta phosphorylation in the HS27 human fibroblast cell line. Cells were seeded into a 96 well tissue culture plate, then incubated overnight in a 37° C./5% CO2 incubator. The following day, cells were treated for one hour with test compound dilutions. After stimulation with PDGF-BB ligand for 10 minutes, cells were washed with PBS and fixed in 3.7% formaldehyde in PBS for 10 minutes. This was followed by washing in PBS/0.2% Triton X-100 and permeabilizing in 100% MeOH for 10 minutes. Cells were incubated in blocking buffer for 1 hour. Antibodies to phosphorylated PDGFRβ and total ERK were added to the cells and incubated for 3 hours. After washing with PBS/0.2% Triton X-100, the cells were incubated with fluorescently-labeled secondary antibodies for an additional hour. Cells were then washed with PBS and analyzed for fluorescence at both wavelengths using the Odyssey Infrared Imaging System (LI-COR Biosciences). Phosphorylated PDGFR signal was normalized to total ERK signal. A standard 4-parameter logistic model was fit to the inhibitor dose response curves, with the IC50 being defined as the concentration of inhibitor giving 50 percent of control (POC).

cFMS = molecular target: T2, cFMS (Homo sapiens, UniProt P07333); assay: cFMS Cell-Based Assay (Example C); settings: averaged IC50; phospho-cFMS in THP-1 cells stimulated with 250 ng/mL recombinant human MCSF; read-out: cFMS Cell ELISA IC50
T2 construct: THP-1 cells (human acute monocytic leukemia cell line) were serum-starved for 4 hours; endogenous in cells; host or cells: THP-1 cells (human acute monocytic leukemia cell line)
Description: The ability of compounds of Formula I to inhibit cFMS activation in cells was determined by the following assay. THP-1 cells (human acute monocytic leukemia cell line) were serum-starved for 4 hours prior to treatment with compounds of Formula I for 1 hour. The concentration of compounds of Formula I was varied over a 9-point, 3-fold dilution series with 5,000 nM typically being the highest dose. Cell culture and treatment were carried out in a humidified 37° C., 5% CO2 incubator. Treated cells were stimulated with 250 ng/mL recombinant human MCSF for 1 minute to induce activation of cFMS. Cells were lysed in a manner which preserves phosphoproteins, and the lysate was analyzed by ELISA (R&D Systems, Human Phospho-M-CSF R DuoSet IC DYC3268), in which total cFMS protein in the lysate is captured and phosphotyrosine residues of cFMS are detected. A standard curve, made using purified phospho-M-CSF R protein, was used to quantify phospho-c-FMS in compound-treated wells. A standard 4-parameter logistic model was fit to the inhibitor dose response curves, with the IC50 being defined as the concentration of inhibitor giving 50 percent of control (POC).

c-KIT = molecular target: T3, c-KIT (Homo sapiens, UniProt P10721); assay: c-KIT Cell-Based Assay (Example D); settings: averaged IC50; phospho-c-KIT in M-07e cells stimulated with 150 ng/ml recombinant human SCF; read-out: cKIT Cell ELISA IC50
T3 construct: M-07e cells (human acute megakaryoblastic leukemia cell line) were serum-starved for 4 hours; endogenous in cells; host or cells: M-07e cells (human acute megakaryoblastic leukemia cell line)
Description: The ability of compounds of Formula I to inhibit c-KIT activation in cells was determined by the following assay. M-07e cells (human acute megakaryoblastic leukemia cell line) were serum-starved for 4 hours prior to treatment with compounds of Formula I for 1 hour. The concentration of compounds of Formula I was varied over a 9-point, 3-fold dilution series with 5,000 nM typically being the highest dose. Cell culture and treatment were carried out in a humidified 37° C., 5% CO2 incubator. Treated cells were stimulated with 150 ng/ml recombinant human SCF for 4 minutes to induce activation of c-KIT. Cells were lysed in a manner which preserves phosphoproteins, and the lysate was analyzed by ELISA (R&D Systems, Human Phospho-SCF R DuoSet IC DYC3527), in which total c-KIT protein in the lysate is captured and phosphotyrosine residues of c-Kit are detected. A standard curve, made using purified phospho-SCF R protein, was used to quantify phospho-c-KIT in compound-treated wells. A standard 4-parameter logistic model was fit to the inhibitor dose response curves, with the IC50 being defined as the concentration of inhibitor giving 50 percent of control (POC).

T3 sequence (P10721 26-976): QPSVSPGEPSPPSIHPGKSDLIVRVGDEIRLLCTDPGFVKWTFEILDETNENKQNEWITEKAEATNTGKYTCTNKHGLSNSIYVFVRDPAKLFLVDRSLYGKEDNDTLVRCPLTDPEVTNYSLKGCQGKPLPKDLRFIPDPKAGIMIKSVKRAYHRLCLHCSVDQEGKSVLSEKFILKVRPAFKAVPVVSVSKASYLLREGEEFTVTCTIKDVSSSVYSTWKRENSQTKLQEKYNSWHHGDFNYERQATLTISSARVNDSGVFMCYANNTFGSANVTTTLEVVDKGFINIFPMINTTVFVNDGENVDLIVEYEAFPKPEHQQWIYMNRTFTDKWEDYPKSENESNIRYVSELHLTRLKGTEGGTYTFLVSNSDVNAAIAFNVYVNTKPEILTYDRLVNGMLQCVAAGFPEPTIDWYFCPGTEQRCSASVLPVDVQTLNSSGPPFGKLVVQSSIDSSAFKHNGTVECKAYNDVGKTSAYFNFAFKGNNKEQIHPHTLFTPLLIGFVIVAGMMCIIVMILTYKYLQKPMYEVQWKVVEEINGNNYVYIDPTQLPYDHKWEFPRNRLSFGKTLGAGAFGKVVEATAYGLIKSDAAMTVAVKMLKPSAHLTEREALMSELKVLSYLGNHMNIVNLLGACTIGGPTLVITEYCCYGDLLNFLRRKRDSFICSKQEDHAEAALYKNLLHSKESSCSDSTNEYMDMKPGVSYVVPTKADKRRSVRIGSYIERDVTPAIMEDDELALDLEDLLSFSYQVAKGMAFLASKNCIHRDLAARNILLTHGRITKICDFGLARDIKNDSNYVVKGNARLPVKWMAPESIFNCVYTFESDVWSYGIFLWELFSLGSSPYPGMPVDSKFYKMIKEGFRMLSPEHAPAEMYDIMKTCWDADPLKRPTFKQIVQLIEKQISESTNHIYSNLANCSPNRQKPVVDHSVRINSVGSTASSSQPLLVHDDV
T1 sequence (P09619 33-1106): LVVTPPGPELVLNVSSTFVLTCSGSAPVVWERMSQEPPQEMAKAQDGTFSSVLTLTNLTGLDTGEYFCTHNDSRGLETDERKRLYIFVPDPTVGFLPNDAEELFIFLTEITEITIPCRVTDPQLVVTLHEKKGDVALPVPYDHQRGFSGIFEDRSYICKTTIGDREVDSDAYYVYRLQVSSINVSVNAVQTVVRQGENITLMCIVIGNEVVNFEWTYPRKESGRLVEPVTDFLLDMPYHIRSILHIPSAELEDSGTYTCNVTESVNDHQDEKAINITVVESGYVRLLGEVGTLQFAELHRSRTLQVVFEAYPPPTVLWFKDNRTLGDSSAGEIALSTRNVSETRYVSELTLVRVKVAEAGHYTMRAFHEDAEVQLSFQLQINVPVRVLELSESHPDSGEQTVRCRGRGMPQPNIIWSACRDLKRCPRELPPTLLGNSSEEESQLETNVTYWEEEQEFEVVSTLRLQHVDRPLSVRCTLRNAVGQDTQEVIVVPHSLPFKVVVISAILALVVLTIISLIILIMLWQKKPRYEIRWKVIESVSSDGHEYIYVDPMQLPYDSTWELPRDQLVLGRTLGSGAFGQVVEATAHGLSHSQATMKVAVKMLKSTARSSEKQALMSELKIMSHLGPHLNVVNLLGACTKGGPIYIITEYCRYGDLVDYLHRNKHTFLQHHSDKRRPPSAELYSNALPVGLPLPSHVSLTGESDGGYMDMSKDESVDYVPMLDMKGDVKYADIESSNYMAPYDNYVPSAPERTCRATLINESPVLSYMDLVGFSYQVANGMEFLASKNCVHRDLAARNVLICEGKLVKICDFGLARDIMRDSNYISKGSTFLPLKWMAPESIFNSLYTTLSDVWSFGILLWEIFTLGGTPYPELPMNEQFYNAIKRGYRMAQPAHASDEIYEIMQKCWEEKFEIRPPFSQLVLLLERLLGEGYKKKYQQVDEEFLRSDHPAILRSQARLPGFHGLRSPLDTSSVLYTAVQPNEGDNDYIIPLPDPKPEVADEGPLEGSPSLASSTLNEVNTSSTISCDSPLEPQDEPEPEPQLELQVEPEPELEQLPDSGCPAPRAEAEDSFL
T2 sequence (P07333 20-972): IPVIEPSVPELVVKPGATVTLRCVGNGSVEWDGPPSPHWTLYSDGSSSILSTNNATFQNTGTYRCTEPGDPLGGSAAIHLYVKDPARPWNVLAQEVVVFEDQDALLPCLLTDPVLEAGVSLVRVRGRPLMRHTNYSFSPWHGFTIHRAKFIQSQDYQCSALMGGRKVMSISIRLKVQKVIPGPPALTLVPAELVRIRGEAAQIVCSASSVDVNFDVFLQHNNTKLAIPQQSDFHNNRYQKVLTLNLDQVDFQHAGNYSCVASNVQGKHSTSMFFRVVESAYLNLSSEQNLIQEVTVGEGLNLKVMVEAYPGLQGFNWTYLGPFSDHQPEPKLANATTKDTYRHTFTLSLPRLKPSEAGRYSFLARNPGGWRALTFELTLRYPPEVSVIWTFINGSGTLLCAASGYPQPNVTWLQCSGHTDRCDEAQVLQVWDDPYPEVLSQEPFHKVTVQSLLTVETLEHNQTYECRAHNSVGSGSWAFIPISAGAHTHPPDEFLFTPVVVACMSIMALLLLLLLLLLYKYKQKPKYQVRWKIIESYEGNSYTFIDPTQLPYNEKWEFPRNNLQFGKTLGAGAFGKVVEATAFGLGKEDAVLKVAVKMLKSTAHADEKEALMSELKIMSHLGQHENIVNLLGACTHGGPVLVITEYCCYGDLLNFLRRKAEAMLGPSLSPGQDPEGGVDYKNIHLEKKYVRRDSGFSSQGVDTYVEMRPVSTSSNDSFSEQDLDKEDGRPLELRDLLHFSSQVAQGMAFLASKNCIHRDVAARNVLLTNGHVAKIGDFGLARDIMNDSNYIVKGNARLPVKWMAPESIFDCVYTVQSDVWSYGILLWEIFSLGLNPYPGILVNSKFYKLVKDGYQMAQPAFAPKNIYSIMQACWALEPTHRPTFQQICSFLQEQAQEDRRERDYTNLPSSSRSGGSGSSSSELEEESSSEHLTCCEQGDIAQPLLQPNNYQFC

Row | SMILES | IC50 (PDGFR beta) [nM] | IC50 (cFMS) [nM] | IC50 (c-KIT) [nM]
1 | COCCOc1ccn2c(C(=O)Nc3cccc4c3cnn4Cc3cccc(C(N)=O)c3)cnc2c1 [Example 94, N-(1-(3-carbamoylbenzyl)-1H-indazol-4-yl)-7-(2-methoxyethoxy)imidazo[1,2-a]pyridine-3-carboxamide] | 65 | 46.9 | 94.8
2 | CNC(=O)c1cccc(Cn2ncc3c(NC(=O)c4cnc5cc(OCCOC)ccn45)cccc32)c1 [Example 95, 7-(2-Methoxyethoxy)-N-(1-(3-(methylcarbamoyl)benzyl)-1H-indazol-4-yl)imidazo[1,2-a]pyridine-3-carboxamide] | 74.3 | 31.4 | 78.2
3 | COC(=O)c1cccc(Cn2ncc3c(NC(=O)c4cnc5cc(OCCN6CCN(C)CC6)ccn45)cccc32)c1 [Example 96, Methyl 3-((4-(7-(2-(4-methylpiperazin-1-yl)ethoxy)imidazo[1,2-a]pyridine-3-carboxamido)-1H-indazol-1-yl)methyl)benzoate dihydrochloride] | 14.6 | 115 | 3.8
4 | CN1CCN(CCOc2ccn3c(C(=O)Nc4cccc5c4cnn5Cc4cccc(C(=O)N(C)C)c4)cnc3c2)CC1 [Example 97, N-(1-(3-(dimethylcarbamoyl)benzyl)-1H-indazol-4-yl)-7-(2-(4-methylpiperazin-1-yl)ethoxy)imidazo[1,2-a]pyridine-3-carboxamide dihydrochloride] | 9.6 | 10.4 | 25.7
5 | CN1CCN(CCOc2ccn3c(C(=O)Nc4cccc5c4cnn5Cc4cccc(C(F)(F)F)c4)cnc3c2)CC1 [Example 98, 7-(2-(4-methylpiperazin-1-yl)ethoxy)-N-(1-(3-(trifluoromethyl)benzyl)-1H-indazol-4-yl)imidazo[1,2-a]pyridine-3-carboxamide dihydrochloride] | 5.7 | 26.3 | 4.9
6 | CN1CCN(CCOc2ccn3c(C(=O)Nc4cccc5c4cnn5Cc4cccc(C#N)c4)cnc3c2)CC1 [Example 99, N-(1-(3-cyanobenzyl)-1H-indazol-4-yl)-7-(2-(4-methylpiperazin-1-yl)ethoxy)imidazo[1,2-a]pyridine-3-carboxamide] | 6.4 | 5.6 | 11.4
7 | CN1CCN(CCOc2ccn3c(C(=O)Nc4c(Cl)ccc5c4cnn5Cc4cccc(C(F)(F)F)c4)cnc3c2)CC1 [Example 100, N-(5-chloro-1-(3-(trifluoromethyl)benzyl)-1H-indazol-4-yl)-7-(2-(4-methylpiperazin-1-yl)ethoxy)imidazo[1,2-a]pyridine-3-carboxamide] | 6 | 23.6 | 3.3
8 | Cc1cccc(Cn2ncc3c(NC(=O)c4cnc5cc(OCCN6CCN(C)CC6)ccn45)ccc(Cl)c32)n1 [Example 101, N-(7-chloro-1-((6-methylpyridin-2-yl)methyl)-1H-indazol-4-yl)-7-(2-(4-methylpiperazin-1-yl)ethoxy)imidazo[1,2-a]pyridine-3-carboxamide trihydrochloride] | 23.7 | 43.6 | 30.5
9 | CN1CCN(CCOc2ccn3c(C(=O)Nc4cccc5c4cnn5Cc4cccnc4)cnc3c2)CC1 [Example 102, 7-(2-(4-methylpiperazin-1-yl)ethoxy)-N-(1-(pyridin-3-ylmethyl)-1H-indazol-4-yl)imidazo[1,2-a]pyridine-3-carboxamide trihydrochloride] | 17.6 | 26 | 94.9
10 | CN1CCN(CCOc2ccn3c(C(=O)Nc4cccc5c4cnn5Cc4ccc(C(F)(F)F)cn4)cnc3c2)CC1 [Example 103, 7-(2-(4-Methylpiperazin-1-yl)ethoxy)-N-(1-((5-(trifluoromethyl)pyridin-2-yl)methyl)-1H-indazol-4-yl)imidazo[1,2-a]pyridine-3-carboxamide trihydrochloride] | 2.7 | 7.3 | 7.2
11 | CN1CCN(CCOc2ccn3c(C(=O)Nc4cccc5c4cnn5Cc4cccn(C)c4=O)cnc3c2)CC1 [Example 104, N-(1-((1-methyl-2-oxo-1,2-dihydropyridin-3-yl)methyl)-1H-indazol-4-yl)-7-(2-(4-methylpiperazin-1-yl)ethoxy)imidazo[1,2-a]pyridine-3-carboxamide dihydrochloride] | 78.4 | 33.7 | 398
12 | CCOc1cccc(Cn2ncc3c(NC(=O)c4cnc5cc(OCCN6CCN(C)CC6)ccn45)cccc32)n1 [Example 105, N-(1-((6-ethoxypyridin-2-yl)methyl)-1H-indazol-4-yl)-7-(2-(4-methylpiperazin-1-yl)ethoxy)imidazo[1,2-a]pyridine-3-carboxamide] | 2.6 | 3.3 | 2.7
13 | CN1CCN(CCOc2ccn3c(C(=O)Nc4cccc5c4cnn5Cc4cn(C)cn4)cnc3c2)CC1 [Example 106, N-(1-((1-methyl-1H-imidazol-4-yl)methyl)-1H-indazol-4-yl)-7-(2-(4-methylpiperazin-1-yl)ethoxy)imidazo[1,2-a]pyridine-3-carboxamide dihydrochloride] | 558 | 159 | 748
14 | CN1CCN(CCOc2ccn3c(C(=O)Nc4cccc5c4cnn5CCc4ccccn4)cnc3c2)CC1 [Example 107, 7-(2-(4-methylpiperazin-1-yl)ethoxy)-N-(1-(2-(pyridin-2-yl)ethyl)-1H-indazol-4-yl)imidazo[1,2-a]pyridine-3-carboxamide] | 158 | 44.8 | 123
15 | CN1CCN(CCOc2ccn3c(C(=O)Nc4cccc5c4cnn5Cc4ccc5[nH]cnc5c4)cnc3c2)CC1 [Example 108, N-(1-((1H-benzo[d]imidazol-5-yl)methyl)-1H-indazol-4-yl)-7-(2-(4-methylpiperazin-1-yl)ethoxy)imidazo[1,2-a]pyridine-3-carboxamide dihydrochloride] | 142 | 66.7 | 181
16 | COCCOc1ccn2c(C(=O)Nc3cccc4c3cnn4CC3CC3)cnc2c1 [Example 110, N-(1-(cyclopropylmethyl)-1H-indazol-4-yl)-7-(2-methoxyethoxy)imidazo[1,2-a]pyridine-3-carboxamide] | 1000 | 380 | 168
17 | COCCOc1ccn2c(C(=O)Nc3cccc4c3cnn4Cc3ccncc3)cnc2c1 [Example 111, 7-(2-methoxyethoxy)-N-(1-(pyridin-4-ylmethyl)-1H-indazol-4-yl)imidazo[1,2-a]pyridine-3-carboxamide] | 449 | 150 | 451
18 | COCCOc1ccn2c(C(=O)Nc3cccc4c3cnn4Cc3ccccn3)cnc2c1 [Example 112, 7-(2-methoxyethoxy)-N-(1-(pyridin-2-ylmethyl)-1H-indazol-4-yl)imidazo[1,2-a]pyridine-3-carboxamide] | 16.7 | 33.7 | 68.9
19 | COCCOc1ccn2c(C(=O)Nc3cccc4c3cnn4CC3CCOCC3)cnc2c1 [Example 113, 7-(2-methoxyethoxy)-N-(1-((tetrahydro-2H-pyran-4-yl)methyl)-1H-indazol-4-yl)imidazo[1,2-a]pyridine-3-carboxamide] | 289 | 121 | 331
